Test results published in patent US20250011715A1, “METHOD FOR PRODUCING INNER EAR STRIA VASCULARIS MARGINAL CELLS, CHEMICAL AGENT ASSESSMENT METHOD, AND CELL CULTURE FOR ASSESSING CHEMICAL AGENT” (THE KITASATO INSTITUTE, priority 2021, published 2025).

Columns and labels:
[1] = test system: inner ear stria vascularis marginal cells (cell mass after suspension culture) from human iPS cells; conditions: HBSS containing 2 mM EDTA, on ice 15 minutes, 4 kDa FITC-Dextran 2 mg/mL, Day 61, versus EDTA non-treatment; FIG. 18
Description: The inner ear progenitor cells were obtained from human iPS cells by the same method as in Test Example 1, and suspension culture was continued until the 49th day (Day 61) after the start of the suspension culture by the same method as in Test Example 2 using the inner ear progenitor cells.
For the obtained cells, a barrier function assay was performed. Specifically, the culture after the suspension culture was put into a microtube having a volume of 1.5 mL for each cell, and centrifuged, the culture medium was discarded, and 0.5 mL of HBSS containing 2 mM EDTA was added. In addition, as a control, a sample to which HBBS containing no EDTA was added was also prepared under the same conditions. Each of the samples was placed on ice for 15 minutes, and then 4 kDa FITC-Dextran was added to each of the samples to a concentration of 2 mg/mL, and the samples were suspended and immediately observed with a confocal microscope.

OTX2 gene = OTX2 gene expression by qPCR during differentiation induction into inner ear stria vascularis marginal cells; type: cell-based, human; conditions: Day 60; insulin-free medium (N21-Ins) versus B27+N2 medium and insulin-free medium with 1.5 μM insulin added from Day 20; FIG. 17
Description: The differentiation from human iPS cells into inner ear progenitor cells was induced by the same method as in Test Example 1, the cells on the 12th day (Day 12) from the start of the differentiation induction were detached off with Accutase, an equal amount of PBS was added thereto, the cells were passed through a nylon mesh (pore size: 40 μm), and the number of cells was counted with a hemocytometer.
The cells were suspended to a concentration of 5×10^5 cells/10 mL and seeded in a low adhesion 6-well plate (trade name “Corning Ultra-Low Attachment Plate”, Corning Inc.), and suspension culture was started under low oxygen conditions (4% of O2, 5% of CO2). […]
In any of the above Conditions 1) to 3), the cells on the 48th day (Day 60) after the start of the suspension culture were collected, and the expression level of the OTX2 gene, which is known to be expressed on the Reissner's membrane, which is an inner ear organ, and known to be poorly expressed in the inner ear stria vascularis marginal cells, was quantified by qPCR in the same manner as in Test Example 1.

O=C(O)CN(CCN(CC(=O)O)CC(=O)O)CC(=O)O [EDTA]
barrier function between cells (transfer of FITC-Dextran to the inside of the cell mass) [1]: calcium-dependent barrier function was impaired

insulin
expression level of OTX2 (OTX2 gene): low in a case where the culture medium did not contain insulin as compared with a case where insulin was contained in the culture medium
